Assay results published in PubChem BioAssay AID504822 (The Scripps Research Institute Molecular Screening Center, 2011).
pEC50: −log10 of the molar value. Active and inactive are the calls of the source.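 Rule for the calls: active = EC50 for procaspase-7 activation at or below 10 µM; inactive = EC50 above 10 µM.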

Target: Caspase-7 (Homo sapiens) (UniProt P55210)
Test: activators of human procaspase-7 D3A mutant, late-stage follow-up, biochemical, absorbance, PC-7 D3A triple mutant, powder samples (AID 504822)
Conditions: recombinant procaspase-7 D3A, Ac-DEVD-pNA absorbance

Caspase-7 (Homo sapiens), sequence (P55210 whole entry D23A/D198A/D206A): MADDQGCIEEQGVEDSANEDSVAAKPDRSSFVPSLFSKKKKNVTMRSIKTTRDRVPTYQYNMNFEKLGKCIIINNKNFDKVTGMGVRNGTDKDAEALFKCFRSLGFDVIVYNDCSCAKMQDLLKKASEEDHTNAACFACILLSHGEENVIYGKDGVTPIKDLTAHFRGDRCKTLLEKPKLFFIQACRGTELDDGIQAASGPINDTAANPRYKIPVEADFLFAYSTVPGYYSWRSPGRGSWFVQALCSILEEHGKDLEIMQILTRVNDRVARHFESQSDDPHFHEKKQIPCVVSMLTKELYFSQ

## COc1ccccc1N1C(=O)C2C(C(=O)c3ccccc3)=NN(c3ccccc3)C2C1=O (stereo not given)
  EC50: > 85.3 µM (inactive)

## Cc1[nH]nc2c1C(c1c[nH]c3ccccc13)C(C#N)=C(N)O2 (stereo not given)
  pEC50: 5.35

## COC(=O)C1=NN(c2ccc(Cl)cc2)C2C(=O)N(c3ccccc3OC)C(=O)C12 (stereo not given)
  EC50: > 85.3 µM (inactive)

## O=C(Nc1ccc(Cc2ccncc2)cc1)C1CCC(N2C(=O)C3C4C=CC(C5CC45)C3C2=O)CC1 (stereo not given)
  EC50: > 85.3 µM (inactive)

## O=C(C1=NN(c2ccccc2)C2C(=O)N(c3ccccc3)C(=O)C12)c1ccccc1 (stereo not given)
  EC50: > 85.3 µM (inactive)
